What was measured:
PGE2 [1] = assay: Equilibrium in vivo dialysis of rectum with radioimmunoassay of PGE2 (enema trial); set-up: species or system patients; details: for Concentrations of PGE2 in rectal lumen: median, enema groups irrespective of SAZ (+/-), SAZ line = no enema, with SAZ maintenance; for effect of treatment with enemas on PGE2 concentrations in the rectal lumen: whole group, active UC, 2-4 weeks, 5-ASA p>0.5, prednisolone p<0.05 (Wilcoxon)
Procedure: (§1) The study was carried out as a block-randomized, double-blind trial. Before entry, clinical disease activity was assessed, and equilibrium in vivo dialysis of rectum was performed before the assessment of endoscopic and histologic disease activity. […] Primary stratification was done for patients already on maintenance treatment with SAZ. At day 15 the equilibrium in vivo dialysis of rectum was repeated, and clinical, endoscopic, and histologic activities were reassessed. Patients in complete clinical and endoscopic remission discontinued treatment with enemas, whereas the remainder continued therapy for another 14 days. In all cases equilibrium in vivo dialysis of rectum and assessment of disease activity were repeated at day 29. Withdrawal criteria included intolerance to treatment or deterioration (severe disease, C3) requiring systemic glucocorticoids.
In vivo dialysis of rectum was performed after insertion of a 12-cm-long dialysis bag (volume 4 ml; Visking seamless cellulose tubing 8/32 filled with Rheomacrodex@; Pharmacia, Uppsala, Sweden) containing 10% dextran (mean mol wt 40,000) in saline into the emptied rectum. To obtain equilibrium with the fluid covering the surface of rectal mucosa, the dialysis bag was left for 4 h before its contents were emptied into a test tube, which was stored immediately at -20°C (rectal dialysate) for analysis within 2 wk.
Prostaglandin E2 was measured as previously described in detail (K. Bukhave, J. Rask-Madsen J, 'Prostaglandin E2 in jejunal fluids and its potential diagnostic value for selecting patients with indomethacin-sensitive diarrhoea', 1981 European Journal of Clinical Investigation, 11:191-7) by a radioimmunologic method validated by gas chromatography-mass spectrometry (K. Bukhave, K Green, J. Rask-Madsen, 'Comparison of radioimmunological determinations with gas chromatography mass spectrometry dosage', 1983 Biomedical Mass Spectrometry, 10:265-8). The method included purification by extraction with ethylacetate/cyclo- hexane (1:1) and chromatography on microcolumns of Sephadex LH-20 (Pharmacia AB, Sweden) before performing the radioimmunoassay itself on the eluate fraction containing PGE2.

[2] = test system: ulcerative proctosigmoiditis; type: in vivo, patients
Procedure: For patients maintained on SAZ (1 g b.i.d.) this treatment was kept unchanged throughout the trial. No other drugs were given.
as §1
The clinical activity was based on a diary in which the number of bowel movements and the presence or absence of blood were registered by the patient and the objective findings were registered by the investigator. To minimize variation among observers each patient was examined on all study days by the same investigator, who was unaware of the results of the rectal dialyses.

[3] = test system: ulcerative colitis and Crohn's colitis; assay: Open one-year dose-escalation study of ADS: efficacy, tolerance and safety; type: in vivo, patients; details: for patients who experienced a relapse: remaining UC patients
From the text: Patients fulfilling the following entry criteria were candidates for the study: (a) proven UC or proven CC; (b) relapsing disease (i.e., a relapse within the past six months) or chronic continous disease activity (i.e. absence of remission (definition: see below) for three months or more); (c) refractory to SAZ (i.e., relapsing disease despite maintenance treatment with SAZ 2 g/day or chronic continous disease despite treatment with glucocorticoids and SAZ) or intolerant of SAZ (i.e., allergic to or otherwise intolerant of SAZ).
The study design was open with an initial dose of ADS 1 g/day (0.5 g b.i.d.), in SAZ intolerant patients. In SAZ refractory patients the initial dose was 2 g/day (1 g b.i.d.). […] In patients on concomitant corticosteroids the dose was gradually tapered and, if possible, the administration was stopped.
(§2) Aone year treatment period was planned including scheduled visits at two weeks and at two, four, six, eight, ten, and 12 months, in addition to in-between visits, if needed. Before entry and at each visit the clinical disease activity was assessed (see below) and a laboratory screening was done. This included blood haemoglobin, reticulocyte count, erythrocyte sedimentation rate, leucocyte count, leucocyte differential count, platelet count, serum concentrations of Na, K, Ca, albumin, creatinine, urea, alanine aminotransferase, lactate dehydrogenase, alkaline phosphatase, bilirubin, and plasma prothrombin, in addition to urine analysis for protein and glucose and microscopy for erythrocytes, leukocytes, and casts.
The clinical activity was based on a diary and the objective findings registered by the investigator. To minimize variation among observers each patient was examined on all study days by the same investigator. All days the week preceeding a scheduled visit the patient recorded the number of bowel movements in the diary, in addition to the presence or absence of blood, and graded abdominal pain and general well-being according to W. R. Best, J. M. Becktel, J. W. Singleton, 'Rederived values of the eight coefficients of the Crohn's Disease Activity Index (CDAI)', 1979 Gastroenterology, 77:843-6) for calculation of the Crohn's disease activity index (CDAI). […] Remission in patients with CC was defined as a CDAI <150 and no evidence of inflammation on sigmoidoscopy. […] Due to the open design of the study no further clinical or endoscopic estimations of efficacy were done.

[4] = HPLC of ADS, 5-ASA and Ac-5-ASA in faecal dialysates (equilibrium in vivo dialysis of faeces); set-up: species or system patients; details: for concentration: ulcerative colitis, read-out: Concentrations in faecal dialysates
Procedure: (§3) Before entry, at the two week's visit, and at the six and 12 months' visits equilibrium in vivo dialysis of faeces as well as equilibrium in vivo dialysis of rectum were done prior to endoscopy of rectum and sigmoid colon with biopsies. ADS was administered in gelatin capsules, each containing 250 mg of the powdered drug without additives.
(§4) Equilibrium in vivo dialysis of faeces was done as previously described in detail by pooling the contents of five swallowed dialysis bags following their intestinal transit (faecal dialysate).
(§5) The lower detection limits in serum and in faecal dialysates were 1.0 umol/I and 6.0 umol/l, respectively. Prostaglandin E2 was measured by the radioimmunologic method, referred to above, validated by gas chromatography-mass spectrometry. These measurements were done blindly and independently of the assessment of disease activity and clinicians were unaware of the results until the data had been completed.

PGE2 [5] = assay: Equilibrium in vivo dialysis of faeces with radioimmunoassay of PGE2 (ADS study); set-up: species or system patients; details: mean±SD
Procedure: as §3, §4, §5

PGE2 [6] = assay: Equilibrium in vivo dialysis of rectum with radioimmunoassay of PGE2 (ADS study); set-up: species or system patients; details: mean±SD
Procedure: as §3
Equilibrium in vivo dialysis of rectum was performed after insertion of a 12-cm-long dialysis bag into the emptied rectum as previously described (K. Lauritsen, L.S. Laursen, K. Bukhave, J. Rask-Madsen, "Effects of topical 5-aminosalicylic acid and prednisolone on prostaglandin E2 and leukotriene B4 levels determined by equilibrium in vivo dialysis of rectum in relapsing ulcerative colitis, Gastroenterology 1986;91:837-844). The bag was left for four hours and its contents (rectal dialysate) were analyzed for concentrations of PGE2 (rectal PGEZ).
as §5

ulcerative colitis = details: human, in vivo, po; cited from earlier work
[7] = HPLC of ADS, 5-ASA and Ac-5-ASA in serum; type: in vivo, patients; details: ulcerative colitis, read-out: Concentrations in serum
Procedure: as §2, §5

[8] = clinical activity 2-3 (moderate-severe)
[9] = endoscopic activity 0 (inactive)
[10] = endoscopic activity 2 (moderate)
[11] = number of patients, enemas once daily 2-4 wk, 5-ASA n=13, prednisolone n=11
[12] = number of these patients on additional SAZ maintenance (figure in brackets)

With C[C@]12C=CC(=O)C=C1CC[C@@H]1[C@@H]2[C@@H](O)C[C@@]2(C)[C@H]1CC[C@]2(O)C(=O)CO [Prednisolone, prednisolone] the “Concentrations of PGE2 in rectal lumen” value (PGE2 [1]; clinical activity 0 (inactive)) was 1.6(n=9) (0.16-5.0) ng/ml, the “Concentrations of PGE2 in rectal lumen” value (PGE2 [1]; clinical activity 1 (mild)) was 5.4(n=6) (0.58-42) ng/ml and the “Concentrations of PGE2 in rectal lumen” value (PGE2 [1]; [8]) was 9.5(n=3) (5.9-12) ng/ml. The “Concentrations of PGE2 in rectal lumen” value (PGE2 [1]; [9]) was 0.82(n=8) (0.16-5.0) ng/ml, the “Concentrations of PGE2 in rectal lumen” value (PGE2 [1]; endoscopic activity 1 (mild)) was 2.8(n=7) (0.57-3.9) ng/ml and the “Concentrations of PGE2 in rectal lumen” value (PGE2 [1]; [10]) was 10.5(n=3) (5.5-42) ng/ml. For the same molecule, the “effect of treatment with enemas on PGE2 concentrations in the rectal lumen” value (PGE2 [1]) was “inhibited PGE2 concentrations significantly”, the “Outcome of treatment: Clinical and endoscopic remission” value ([2]; number of patients, enemas once daily 2-4 wk, 5-ASA 1000 mg (n=13), prednisolone 25 mg (n=11)) was 8 and the “Outcome of treatment: Clinical but not endoscopic remission” value [2, 11] was 1 (1). The “Outcome of treatment: Unchanged or worse” value [2, 11] was 2 (2), the “Outcome of treatment: Clinical and endoscopic remission (on SAZ)” value ([2]; number of these patients on additional SAZ maintenance 2 g/day (figure in brackets)) was 3 and the “Outcome of treatment: Clinical but not endoscopic remission (on SAZ)” value [2, 12] was 1 (1). For the same molecule, the “Outcome of treatment: Unchanged or worse (on sulfasalazine)” value [2, 12] was 2 (2).
With Nc1ccc(O)c(C(=O)O)c1 [5-ASA, 5-amino-salicylic acid] the “Concentrations of PGE2 in rectal lumen” value (PGE2 [1]; clinical activity 0 (inactive)) was 0.71(n=7) (0.18-6.0) ng/ml, the “Concentrations of PGE2 in rectal lumen” value (PGE2 [1]; clinical activity 1 (mild)) was 24(n=5) (2.5-58) ng/ml and the “Concentrations of PGE2 in rectal lumen” value (PGE2 [1]; [8]) was 33(n=8) (14-120) ng/ml. For the same molecule, the “Concentrations of PGE2 in rectal lumen” value (PGE2 [1]; [9]) was 0.75(n=3) (0.18-3.7) ng/ml, the “Concentrations of PGE2 in rectal lumen” value (PGE2 [1]; endoscopic activity 1 (mild)) was 5.5(n=4) (0.29-6.2) ng/ml and the “Concentrations of PGE2 in rectal lumen” value (PGE2 [1]; [10]) was 24(n=8) (2.5-58) ng/ml. The “Concentrations of PGE2 in rectal lumen” value (PGE2 [1]; endoscopic activity 3 (severe)) was 31(n=5) (20-120) ng/ml, the “PGE2 levels in the rectal lumen” value (PGE2 [1]; only those patients responding to treatment) was “decreased toward control levels” and the “effect of treatment with enemas on PGE2 concentrations in the rectal lumen” value (PGE2 [1]) was “No significant effects”. The “difficulties in retaining the enemas” value ([2]; human, in vivo) was 2, the “Outcome of treatment: Unchanged or worse” value [2, 11] was 6 and the “Outcome of treatment: Unchanged or worse (on sulfasalazine)” value [2, 12] was 3.
For O=C(O)c1cc(N=Nc2ccc(O)c(C(=O)O)c2)ccc1O [Olsalazine, disodium-azodisalicylate], the “withdrawals due to drug intolerance” value ([3]; 40 patients, ADS 1-4 g/day up to one year) was “No patients were withdrawn due to drug intolerance”, the treatment failures ([3]; UC patients intolerant of SAZ) was “one of eight” and the treatment failures ([3]; UC patients refractory to SAZ, of 23) was 12. For the same molecule, the “slightly increased levels of alanine aminotransferase or alkaline phosphatase” value ([3]; in vivo) was “six cases”, the “treatment failures (CDAI <150 without sigmoidoscopic evidence of inflammation never obtained)” value ([3]; patients with CC) was “Five of the nine” and the “treatment failures (clinical and sigmoidoscopic remission never obtained)” value ([3]; patients with UC (n=31)) was “Thirteen patients”. For the same molecule, the “patients who experienced a relapse” value ([3]; on 1 g/day) was “four”, the “patients who experienced a relapse” value ([3]; on 2 g/day) was “two” and the “patients who experienced a relapse” value ([3]; on 3 g/day) was “eight”. The “patients who experienced a relapse” value ([3]; on 4 g/day) was “two”, the concentration ([4]; Olsalazine dose/day 1 g (n=7), mean±SD of averages in each patient) was 100 ± 140 µM and the concentration ([4]; Olsalazine dose/day 2 g (n=20), mean±SD) was 340 ± 480 µM. For the same molecule, the concentration ([4]; Olsalazine dose/day 3 g (n=14), mean±SD) was 400 ± 580 µM, the concentration ([4]; Olsalazine dose/day 4 g (n=18), mean±SD) was 270 ± 410 µM and the “patients in whom the split ratio was below 90%, at least on one occasion” value ([4]; of all patients) was 28%. The “Fecal PGE2 levels” value (PGE2 [5]; Crohn's colitis (n=9), Month 6, Entry 1.76±1.94) was 0.70±0.68 (0.08-1.81) ng/ml, the “Fecal PGE2 levels” value (PGE2 [5]; Crohn's colitis (n=9), Month 12, Entry 1.76±1.94) was 1.23±2.06 (0.04-5.39) ng/ml and the “Fecal PGE2 levels” value (PGE2 [5]; Ulcerative colitis, SAZ intolerant, n=8, Month 6, Entry 1.09±1.18) was 0.48±0.85 (0.04-2.55) ng/ml. For the same molecule, the “Fecal PGE2 levels” value (PGE2 [5]; Ulcerative colitis, SAZ intolerant, n=8, Month 12, Entry 1.09±1.18, p<0.05) was 0.16±0.05 (0.08-0.22) ng/ml, the “Fecal PGE2 levels” value (PGE2 [5]; Ulcerative colitis, SAZ refractory, n=23, Month 6, Entry 1.65±1.80, normal range <0.5, p<0.05) was 0.44±1.03 (0.05-4.72) ng/ml and the “Fecal PGE2 levels” value (PGE2 [5]; Ulcerative colitis, SAZ refractory, n=23, Month 12, Entry 1.65±1.80, p<0.05) was 0.77±1.09 (0.06-3.73) ng/ml. The “Rectal PGE2 levels” value (PGE2 [6]; Crohn's colitis (n=9), Month 6, Entry 4.0±5.1) was 5.0±4.8 (0.4-13.0) ng/ml, the “Rectal PGE2 levels” value (PGE2 [6]; Crohn's colitis (n=9), Month 12, Entry 4.0±5.1) was 3.0±5.7 (0.1-14.6) ng/ml and the “Rectal PGE2 levels” value (PGE2 [6]; Ulcerative colitis, SAZ intolerant, n=8, Month 6, Entry 8.5±15.0) was 5.7±11.9 (0.15-32.6) ng/ml. For the same molecule, the “Rectal PGE2 levels” value (PGE2 [6]; Ulcerative colitis, SAZ intolerant, n=8, Month 12, Entry 8.5±15.0) was 1.6±2.0 (0.32-5.3) ng/ml, the “Rectal PGE2 levels” value (PGE2 [6]; Ulcerative colitis, SAZ refractory, n=23, Month 6, Entry 16.0±15.3, normal range <0.6, p<0.05) was 8.1±12.3 (0.05-42.8) ng/ml and the “Rectal PGE2 levels” value (PGE2 [6]; Ulcerative colitis, SAZ refractory, n=23, Month 12, Entry 16.0±15.3) was 13.6±15.4 (0.12-49.0) ng/ml. For the same molecule, the “loose or watery stools (major adverse effect)” value (ulcerative colitis) was 10%, the concentration ([7]; Olsalazine dose/day 1 g (n=9), mean±SD of average in each patient) was 9.2 ± 3.4 µM and the concentration ([7]; Olsalazine dose/day 2 g (n=14), mean±SD) was 16 ± 6.8 µM. For the same molecule, the concentration ([7]; Olsalazine dose/day 3 g (n=20), mean±SD) was 22 ± 8.1 µM and the concentration ([7]; Olsalazine dose/day 4 g (n=20), mean±SD) was 25 ± 11 µM.
